In assay [1] the test system is HCV genotype 1b replicon cell line (APC144; Huh7 cell background). The assay is described as follows: HCV Genotype 1b Replicon Assay (Renilla luciferase readout). As to conditions: Hepatitis C virus, Huh-7; read-out: Genotype 1b (pEC50 class, HCV genotype 1b replicon assay) (converted). It is filed as cell-based. In a few lines:
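Huh7-derived APC144 subgenomic replicon cells carrying Renilla luciferase–NS3-NS5B, seeded 10,000/well without G418, then treated with compound dose-responses for 48 h at 37 °C (0.5% DMSO final). Luciferase signal fitted by 4-parameter model to EC50, reported as pEC50.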

Assay [2] has as its system HCV genotype 1a replicon cell line (APC89; Huh7.5 cell background). Put plainly: HCV Genotype 1a Replicon Assay (NS3-specific protease activity readout). It is filed as cell-based. The following applies: Hepatitis C virus, 72 hour incubation, read-out: Genotype 1a (pEC50 class, HCV genotype 1a replicon assay) (converted). In a few lines: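 Genotype 1a subgenomic replicon cells (APC89, Huh7.5) were treated with compound dose-responses in G418-free medium, 0.5% DMSO final, for 48 or 72 hours at 37° C. Lysate NS3/4a protease activity measured with 15 μM FRET substrate, 20 min at 37° C (ex 340/em 509 nm); EC50 by 4-parameter fit.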
(In general: In antiviral work, replicon cells carry a viral genome segment that copies itself.)

From patent US8921372B2, “Inhibitors of hepatitis C virus” (Theravance Biopharma R&D IP, LLC, priority 2010, dated 2014) come the findings set out here.

For `COC(=O)N[C@H](C(=O)N1CCC[C@H]1c1nc(-c2ccc(-c3ccc(NC(=O)c4ccc(N5CCN(C(=O)[C@H]6CC6(C)C)C[C@H]5C)nc4)cc3F)c(F)c2)c[nH]1)C(C)C` [Example 50, [(S)-1-((S)-2-{4-[4′-({6-[(R)-4-((S)-2,2-dimethyl-cyclopropanecarbonyl)-2-methyl-piperazin-1-yl]-pyridine-3-carbonyl}-amino)-2,2′-difluoro-biphenyl-4-yl]-1H-imidazol-2-yl}-pyrrolidine-1-carbonyl)-2-methyl-propyl]-carbamicacid methyl ester], the EC50 in assay [1] and in assay [2] was less than 0.1 nM throughout.
As to `COC(=O)N[C@H](C(=O)N1CCC[C@H]1c1nc(-c2ccc(-c3cc(F)c(NC(=O)c4ccc(N5CCN(C(=O)[C@H]6CC6(C)C)C[C@H]5C)nc4)cc3C(F)(F)F)cc2)c[nH]1)C(C)C` [Example 51, [(S)-1-((S)-2-{4-[4′-({6-[(R)-4-((S)-2,2-Dimethyl-cyclopropanecarbonyl)-2-methyl-piperazin-1-yl]-pyridine-3-carbonyl}-amino)-5′-fluoro-2′-trifluoromethyl-biphenyl-4-yl]-1H-imidazol-2-yl}-pyrrolidine-1-carbonyl)-2-methyl-propyl]carbamic acid methyl ester], the EC50 in assay [1] and in assay [2] was less than 0.1 nM in each case.
As for `COC(=O)N[C@H](C(=O)N1CCC[C@H]1c1nc(-c2ccc(-c3cc(F)c(NC(=O)c4ccc(N5CCN(C(=O)[C@]6(C)CCCN6C(=O)[C@@H](NC(=O)OC)C(C)C)C[C@H]5C)nc4)cc3C(F)(F)F)cc2)c[nH]1)C(C)C` [Example 52], the EC50 in assay [1] and in assay [2] was less than 0.1 nM each time.
For `CNC(=O)N1CCN(c2ccc(C(=O)Nc3cc(OC(F)(F)F)c(-c4ccc(-c5c[nH]c([C@@H]6CCCN6C(=O)[C@@H](NC(=O)OC)C(C)C)n5)cc4)cc3F)cn2)[C@H](C)C1` [Example 53, ((S)-1-{(S)-2-[4-(5′-Fluoro-4′-{[6-OR)-2-methyl-4-methylcarbamoyl-piperazin-1-yl)-pyridine-3-carbonyl]-amino}-2′-trifluoromethoxy-biphenyl-4-yl)-1H-imidazol-2-yl]-pyrrolidine-1-carbonyl}-2-methyl-propyl)-carbamic acid methyl ester], the EC50 in assay [1] and in assay [2] was less than 0.1 nM throughout.
As for `COC(=O)N[C@H](C(=O)N1CCC[C@H]1c1nc(-c2ccc(-c3ccc(C(=O)Nc4ccc(N5CCN(C(=O)[C@]6(C)CCCN6C(=O)[C@@H](NC(=O)OC)C(C)C)C[C@H]5C)nc4)cc3OC(F)(F)F)cc2)c[nH]1)C(C)C` [Example 56], the EC50 in assay [1] was less than 0.1 nM; in assay [2], 0.1 to 1 nM.
Regarding `COC(=O)N[C@H](C(=O)N1CCC[C@H]1c1nc(-c2ccc(-c3cc(F)c(NC(=O)c4ccc(N5C[C@H](C)N(C(=O)[C@H]6CC6(C)C)C[C@H]5C)nc4)cc3OC(F)(F)F)cc2)c[nH]1)C(C)C` [Example 57], the EC50 in assay [1] and in assay [2] was less than 0.1 nM each time.
For the compound `CNC(=O)N1C[C@@H](C)N(c2ccc(C(=O)Nc3cc(OC(F)(F)F)c(-c4ccc(-c5c[nH]c([C@@H]6CCCN6C(=O)[C@@H](NC(=O)OC)C(C)C)n5)cc4)cc3F)cn2)C[C@@H]1C` [Example 58], the EC50 in assay [1] and in assay [2] was less than 0.1 nM in each case.
For the compound `COC(=O)N[C@H](C(=O)N1CCC[C@H]1c1nc(-c2ccc(-c3cc(F)c(NC(=O)c4ccc(N5C[C@H](C)N(C(=O)c6c[nH]cn6)C[C@H]5C)nc4)cc3OC(F)(F)F)cc2)c[nH]1)C(C)C` [Example 59], the EC50 in assay [1] and in assay [2] was less than 0.1 nM each time.
For `COC(=O)N[C@H](C(=O)N1CCC[C@H]1c1nc(-c2ccc(-c3cc(F)c(NC(=O)c4ccc(N5C[C@H](C)N(C(=O)c6cc[nH]n6)C[C@H]5C)nc4)cc3OC(F)(F)F)cc2)c[nH]1)C(C)C` [Example 60], the EC50 in assay [1] and in assay [2] was less than 0.1 nM in each case.
On to `COC(=O)N[C@H](C(=O)N1CCC[C@H]1c1nc(-c2ccc(-c3cc(Cl)c(NC(=O)c4ccc(N5CCN(C(=O)[C@H]6CC6(C)C)C[C@H]5C)nc4)cc3C(F)(F)F)cc2)c[nH]1)C(C)C` [Example 61, [(S)-1-((S)-2-{4-[5′-Chloro-4′-({6-[(R)-4-((S)-2,2-dimethyl-cyclopropanecarbonyl)-2-methyl-piperazin-1-yl]-pyridine-3-carbonyl}-amino)-2′-trifluoromethyl-biphenyl-4-yl]-1H-imidazol-2-yl}-pyrrolidine-1-carbonyl)-2-methyl-propyl]-carbamic acid methyl ester], for which the EC50 in assay [1] and in assay [2] was less than 0.1 nM in each case.
`COC(=O)N[C@H](C(=O)N1CCC[C@H]1c1nc(-c2ccc(-c3cc(Cl)c(NC(=O)c4ccc(N5CCN(C(=O)[C@]6(C)CCCN6C(=O)[C@@H](NC(=O)OC)C(C)C)C[C@H]5C)nc4)cc3C(F)(F)F)cc2)c[nH]1)C(C)C` [Example 62]: the EC50 in assay [1] and in assay [2] was less than 0.1 nM each time.
Consider `CNC(=O)N1C[C@@H](C)N(c2ccc(C(=O)Nc3cc(C(F)(F)F)c(-c4ccc(-c5c[nH]c([C@@H]6CCCN6C(=O)[C@@H](NC(=O)OC)C(C)C)n5)cc4)cc3Cl)cn2)C[C@@H]1C` [Example 64], for which the EC50 in assay [1] and in assay [2] was less than 0.1 nM throughout.
As to `COC(=O)N[C@H](C(=O)N1CCC[C@H]1c1nc(-c2ccc(-c3cc(Cl)c(NC(=O)c4ccc(N5C[C@H](C)N(C(=O)c6c[nH]cn6)C[C@H]5C)nc4)cc3C(F)(F)F)cc2)c[nH]1)C(C)C` [Example 65], the EC50 in assay [1] and in assay [2] was less than 0.1 nM each time.
For the compound `COCC(=O)N1CCC[C@@]1(C)C(=O)N1CCN(c2ccc(NC(=O)c3ccc(-c4ccc(-c5c[nH]c([C@@H]6CCCN6C(=O)[C@@H](NC(=O)OC)C(C)C)n5)cc4)c(OC(F)(F)F)c3)cn2)[C@H](C)C1` [Example 66], the EC50 in assay [1] and in assay [2] was less than 0.1 nM throughout.
As for `COC(=O)N[C@H](C(=O)N1CCC[C@H]1c1nc(-c2ccc(-c3ccc(C(=O)Nc4ccc(N5CCN(C(=O)[C@]6(C)CCCN6C(=O)CO)C[C@H]5C)nc4)cc3OC(F)(F)F)cc2)c[nH]1)C(C)C` [Example 68], the EC50 in assay [1] was less than 0.1 nM; in assay [2], 0.1 to 1 nM.
Consider `COC(=O)N[C@H](C(=O)N1CCC[C@H]1c1nc(-c2ccc(-c3ccc(C(=O)Nc4ccc(N5CCN(C(=O)[C@]6(C)CCCN6C(=O)C(C)(C)O)C[C@H]5C)nc4)cc3OC(F)(F)F)cc2)c[nH]1)C(C)C` [Example 69], for which the EC50 in assay [1] was less than 0.1 nM; in assay [2], 0.1 to 1 nM.
On to `COC(=O)N[C@H](C(=O)N1CCC[C@H]1c1nc(-c2ccc(-c3ccc(NC(=O)c4ccc(N5C[C@H](C)N(C(=O)[C@H]6CC6(C)C)C[C@H]5C)nc4)c(C)n3)cc2)c[nH]1)C(C)C` [Example 71, {(S)-1-[(S)-2-(4-{4-[5-({6-[(2R,5S)-4-((S)-2,2-Dimethyl-cyclopropanecarbonyl)-2,5-dimethyl-piperazin-1-yl]-pyridine-3-carbonyl}-amino)-6-methyl-pyridin-2-yl]-phenyl}-1H-imidazol-2-yl)-pyrrolidine-1-carbonyl]-2-methyl-propyl}-carbamic acid methyl ester], for which the EC50 was less than 0.1 nM in assay [1] and 0.1 to 1 nM in assay [2].
